Laboratory results as given in US20190274948A1, “PREBIOTIC COSMETIC COMPOSITIONS AND USE OF THE PREBIOTIC COSMETIC COMPOSITIONS” (Natura Cosméticos S.A., priority 2016, published 2019).
Where two headings read alike, the source gives them in different places.

Columns and labels:
elastin = assay: Elastin synthesis in human fibroblast cultures; assay type: cell-based; conditions: 48 hours, vs Baseline Control
Experimental: Human fibroblast cultures were incubated for 48 hours with the product.

IL-8 = IL-8 synthesis in human fibroblast cultures stimulated with LPS; assay type: cell-based; conditions: 3.12% (w/v); vs LPS Control
IL-6 = IL-6 synthesis in human fibroblast cultures stimulated with PMA/LPS; assay type: cell-based; conditions: vs PMA/LPS Control
GAG = conditions: 72 hours
Staphylococcus xylosus = assay: Prebiotic activity: growth in minimal carbon support medium; assay type: cell-based
Experimental: (§1) When a concentration of 10^4 UFC/ml was reached, the micro-organisms were transferred to a minimal carbon support medium that provided the conditions required for micro-organism replication.
(§2) Each active ingredient in the compositions addressed by this invention was added to the culture medium and cultivated. Should any increased count be noted, the ingredient would be considered as having prebiotic activity.
(§3) The results of each assay were submitted to statistical analysis. The active ingredients used in the prebiotic cosmetic compositions addressed by this invention were tested on different micro-organisms.
(§4) The beneficial micro-organisms assayed were: Staphylococcus epidermidis, Staphylococcus xylosus, Staphylococcus warneri, Staphylococcus captis and Corynebacterium xerosis.

[1] = test system: Staphylococcus epidermidis; assay: as above; assay type: cell-based; conditions: 0.5%
Experimental: as §1, §2, §3, §4

IL-10 = IL-10 synthesis in human fibroblast cultures stimulated with PMA/LPS; assay type: cell-based; conditions: concentration not given; vs PMA/LPS Control
MMP-1 = MMP-1 synthesis in human fibroblast cultures stimulated with LPS; assay type: cell-based; conditions: 6.25% (p/v); vs PMA/LPS Control
human fibroblasts = assay: Cell proliferation in human fibroblast cultures; assay type: cell-based; conditions: for increase of proliferation: vs Control group
Excerpt: As a positive assay control, human fibroblasts were cultivated in a culture medium supplemented with 2% of fetal bovine serum.

[2] = test system: tested skin-dwelling micro-organisms; assay: Prebiotic activity on panel of beneficial and undesirable skin micro-organisms; assay type: cell-based; conditions: FIG. 1
Experimental: as §1, §2, §3, §4
The undesirable micro-organisms assayed were: Staphylococcus aureus, Corynebacterium striatum, Corynebacterium jeikeium, Propioniumbacteria acnes and Candida albicans.

OC[C@H]1O[C@H](O[C@H]2O[C@H](CO)[C@@H](O)[C@H](O)[C@H]2O)[C@H](O)[C@@H](O)[C@@H]1O [trehalose]
increase of elastin synthesis (elastin; 1.56% (w/v)): 75%
increase of elastin synthesis (elastin; 3.12% (w/v)): 68%
increase of elastin synthesis (elastin; 6.25% (w/v)): 60%
reduction of IL-8 synthesis (IL-8): 16%
drop of IL-6 synthesis (IL-6; 3.12% (w/v)): 19%
drop of IL-6 synthesis (IL-6; 6.25% (w/v)): 78%
lowering of GAG levels (GAG; 3.12% (w/v)): 23%
lowering of GAG levels (GAG; 6.25% (w/v)): 59%
growth of S. xylosus (Staphylococcus xylosus): selectively favored the growth
growth of S. epidermidis [1]: selectively favored the growth
reductions of IL-10 synthesis (IL-10): up to 31%
reduction in MMP-1 synthesis (MMP-1): 20%
increase of proliferation (human fibroblasts; 1.563% (w/v)): 33%
increase of proliferation (human fibroblasts; 6.250% (w/v)): 12.25%
Fibroblast proliferation, Increase (human fibroblasts; Table 1): of 33%

inulin
selectivity for any of the tested skin-dwelling micro-organisms [2]: did not present selectivity
